ChEMBL document CHEMBL1144284, “Pharmacophore identification of alpha(1A)-adrenoceptor antagonists” (Bioorg Med Chem Lett, 2005)

The compounds below were run against T1, Alpha-1A adrenergic receptor (Homo sapiens, UniProt P35348) (assay: Binding constant measured against Alpha-1A adrenergic receptor in human prostate; +:inactive).
T1 sequence (P35348 whole entry): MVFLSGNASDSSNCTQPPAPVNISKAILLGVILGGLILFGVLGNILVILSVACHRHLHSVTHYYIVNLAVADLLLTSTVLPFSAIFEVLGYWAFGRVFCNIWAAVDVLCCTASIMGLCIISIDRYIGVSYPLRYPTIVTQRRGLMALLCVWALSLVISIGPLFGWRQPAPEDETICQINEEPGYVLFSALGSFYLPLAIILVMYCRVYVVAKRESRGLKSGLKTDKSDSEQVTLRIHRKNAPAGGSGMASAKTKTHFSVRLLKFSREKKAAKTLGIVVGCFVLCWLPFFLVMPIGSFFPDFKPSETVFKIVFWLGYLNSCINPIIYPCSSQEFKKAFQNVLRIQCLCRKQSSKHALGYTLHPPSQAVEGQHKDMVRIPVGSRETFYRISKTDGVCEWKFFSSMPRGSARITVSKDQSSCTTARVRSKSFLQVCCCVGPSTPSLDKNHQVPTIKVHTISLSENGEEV
Format: tissue-based, Prostate gland

SMILES	Ki
COc1cc2c3c(c1OC)-c1cc4c(cc1C[C@@H]3N(C)CC2)OCO4	430 nM
N=C(CC(O)COc1ccccc1-c1ccccc1)N1CCCCC1 (stereo not given)	2500 nM
CCS(=O)(=O)Nc1cccc(C(=C2CCCCC2)c2c[nH]cn2)c1	490 nM
C[C@H](CN1CCN(c2cc(F)c(F)cc2F)CC1)N1C(=O)CC2(CCCC2)CC1=O	290 nM

These compounds were tested against T1, Alpha-1A adrenergic receptor (assay: Binding constant measured against Alpha-1A adrenergic receptor in human prostate; +++:highly active).
Format: tissue-based, Prostate gland

SMILES	Ki
COc1cccc(OC)c1OCCNC[C@H]1CSc2ccccc2O1	0.2 nM
COCC1=C(C(=O)OC)[C@H](c2ccc(F)c(F)c2)N(C(=O)NCCCN2CCC(c3ccccn3)CC2)C(=O)N1	0.36 nM
COc1cccc(OC)c1OCCNC[C@@H]1Oc2ccccc2O[C@H]1c1ccc(C)cc1	0.35 nM
CC(C)(Cc1c[nH]c2ccc(Cl)cc12)NCCOc1ccccc1OCC1CC1	0.6 nM
CC(C)Oc1ccccc1N1CCN(CCCNC(=O)CN2CCCCC2=O)CC1 [RWJ-69736]	0.65 nM
C[C@H](Cc1cc2c(c(C(N)=O)c1)N(CCCO)CC2)NCCOc1ccccc1OCC(F)(F)F [SILODOSIN]	0.036 nM

The compounds below were run against T1, Alpha-1A adrenergic receptor (assay: Binding constant measured against Alpha-1A adrenergic receptor in human prostate; ++:moderately active).
Format: tissue-based, Prostate gland

SMILES	Ki
CCOC(=O)C1CCC(=O)N1CC(=O)CCN1CCN(c2ccccc2OC(C)C)CC1 (stereo not given)	59 nM
N=C(Nc1ccccc1)N1CCN(/C=C2/N=C(c3cccc4ccccc34)OC2=O)CC1	41 nM
COc1ccc(Cl)cc1N1CCN(CCCNc2nccc(C(N)=O)n2)CC1	2 nM
C[C@@]1(O)C(=O)N(CCCN2CCN(c3ccc(F)cc3OCC(F)(F)F)CC2)C(=O)N[C@@H]1O	5 nM
COc1ccccc1N1CCN(CCN2C(=O)c3ccccc3C(C)(C)C2=O)CC1	1 nM
COc1cccc(OC)c1OCCNCC1Oc2ccccc2OC1c1ccc(C)cc1 (stereo not given)	4.1 nM
COc1ccccc1N1CCN(CC(O)COc2cccc3ccccc23)CC1 (stereo not given) [NAFTOPIDIL]	3.7 nM
CC(C)Oc1ccccc1N1CCN(CCNC(=O)CN2CCCCC2=O)CC1 [RWJ-38063]	9.3 nM
CC(C)Oc1ccccc1N1CCN(CCNC(=O)CN2CCCCCC2=O)CC1 [RWJ-68157]	22 nM
O=C(CCCN1CCC2(CC1)C(=O)NCN2c1ccccc1)c1ccc(F)cc1 [SPIPERONE]	7.9 nM
